Counter-ions that a name gives are not always drawn.
These compounds were tested against T1, glycine transporter-1 (GlyT-1) (Homo sapiens, UniProt P48067) (assay: [14C]glycine uptake assay in JAR cells endogenously expressing GlyT-1 (scintillation proximity)). Conditions: JAR cells, [14C]glycine 5 μM, 3 hour incubation; read-out: GlyT-1 IC50.
T1 construct: JAR cells (ATCC#HTB-144), which endogenously express GlyT-1; host or cells: JAR human choriocarcinoma cells
T1 sequence (P48067 1-706): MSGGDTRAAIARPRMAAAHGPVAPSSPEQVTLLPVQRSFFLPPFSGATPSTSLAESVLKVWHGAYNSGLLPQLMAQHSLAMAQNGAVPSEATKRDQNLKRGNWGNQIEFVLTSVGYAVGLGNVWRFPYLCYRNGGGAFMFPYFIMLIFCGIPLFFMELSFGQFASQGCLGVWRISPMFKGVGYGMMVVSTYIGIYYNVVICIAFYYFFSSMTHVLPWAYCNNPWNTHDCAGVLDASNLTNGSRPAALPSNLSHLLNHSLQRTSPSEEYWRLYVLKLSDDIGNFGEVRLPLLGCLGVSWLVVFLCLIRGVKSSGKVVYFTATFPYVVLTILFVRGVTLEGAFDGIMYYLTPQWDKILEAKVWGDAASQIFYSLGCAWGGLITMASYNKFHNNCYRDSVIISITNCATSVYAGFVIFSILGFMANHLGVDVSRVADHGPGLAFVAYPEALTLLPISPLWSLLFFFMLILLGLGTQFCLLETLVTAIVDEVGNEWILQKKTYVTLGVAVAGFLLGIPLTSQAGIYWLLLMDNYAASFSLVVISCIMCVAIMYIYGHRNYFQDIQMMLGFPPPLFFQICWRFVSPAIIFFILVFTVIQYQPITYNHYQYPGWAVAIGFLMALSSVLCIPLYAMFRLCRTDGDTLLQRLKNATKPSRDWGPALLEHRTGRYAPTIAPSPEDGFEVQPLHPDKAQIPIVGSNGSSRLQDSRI
Type: cell-based
Method: The inhibitory activity of compounds of the invention against the glycine transporter-1 (GlyT-1) can be determined by the following scintillation proximity assay. The potency of each compound was assessed in inhibiting the uptake of radiolabeled glycine ([^14C]glycine) using the human choriocarcinoma cell line, JAR cells (ATCC#HTB-144), which endogenously express GlyT-1. In brief, 50,000 JARS cells were plated per well of tissue culture treated 96-well Cytostar-T plate (PerkinElmer) in RPMI media supplemented with 10% heat inactivated FBS and allowed to attach overnight at 37° C. and 5% CO2. Compounds were serially diluted 3-fold in DMSO generating a nine (9) data point response curve for each compound. Two replicates were performed per determination. The compounds were then diluted into Uptake Buffer (10 mM Hepes, 120 mM NaCl, 2 mM KCl, 1 mM CaCl2 and 1 mM MgCl2, 5 mM Alanine, pH 7.4) with a final DMSO concentration of 0.75% (v/v). Following the overnight incubation, the media was replaced with Uptake Buffer in the presence or absence of diluted compound and pre-incubated at room temperature for 10 minutes prior to the addition of [^14C]glycine at a final concentration of 5 μM. Following a 3 hour incubation period at 37° C. and 5% CO2, the plates were sealed and placed at room temperature in the dark for 15 minutes prior to quantification of incorporated radioactivity using a MicroBeta Trilux scintillation plate reader (PerkinElmer). Data were fit into a four-parameter model to determine the inhibitor concentration at half-maximal response (IC50). The assay window was established by control wells incubated with [^14C]glycine in the presence or absence of 10 mM non-labeled glycine. A dose response curve for a synthesized reference standard was generated on every plate as a positive control.
With Cn1cnc(S(=O)(=O)N2CCN(C3(CNC(=O)c4ccc(Cl)cc4F)CCC(F)(F)CC3)CC2)c1 [compound 165, 4-Chloro-N-((4,4-difluoro-1-(4-(1-methyl-1H-imidazol-4-ylsulfonyl)piperazin-1-yl)cyclohexyl)methyl)-2-fluorobenzamide Hydrochloride] the IC50 was 29 nM.
Compound Cc1cc(Cl)ccc1C(=O)NCC1(N2CCN(S(=O)(=O)c3cn(C)cn3)CC2)CCC(F)(F)CC1 [compound 168, 4-Chloro-N-((4,4-difluoro-1-(4-(1-methyl-1H-imidazol-4-ylsulfonyl)piperazin-1-yl)cyclohexyl)methyl)-2-methylbenzamide Hydrochloride] has an IC50 of 15 nM.
In the case of Cn1cnc(S(=O)(=O)N2CCN(C3(CNC(=O)c4ccc(F)cc4C(F)(F)F)CCC(F)(F)CC3)CC2)c1 [compound 169, N-((4,4-Difluoro-1-(4-(1-methyl-1H-imidazol-4-ylsulfonyl)piperazin-1-yl)cyclohexyl)methyl)-4-fluoro-2-(trifluoromethyl)benzamide Hydrochloride], the IC50 is reported as 2 nM.
In the case of Cn1cnc(S(=O)(=O)N2CCN(C3(CNC(=O)c4ccc(C(F)(F)F)cc4F)CCC(F)(F)CC3)CC2)c1 [compound 170, N-((4,4-Difluoro-1-(4-(1-methyl-1H-imidazol-4-ylsulfonyl)piperazin-1-yl)cyclohexyl)methyl)-2-fluoro-4-(trifluoromethyl)benzamide Hydrochloride], the IC50 is reported as 14 nM.
With Cn1cnc(S(=O)(=O)N2CCN(C3(CNC(=O)c4ccc(C(F)(F)F)cc4Cl)CCC(F)(F)CC3)CC2)c1 [compound 171, N-((4,4-Difluoro-1-(4-(1-methyl-1H-imidazol-4-ylsulfonyl)piperazin-1-yl)cyclohexyl)methyl)-2-chloro-4-(trifluoromethyl)benzamide Hydrochloride] the IC50 was 2 nM.
Work on Cn1cnc(S(=O)(=O)N2CCN(C3(CNC(=O)c4c(F)cccc4C(F)(F)F)CCC(F)(F)CC3)CC2)c1 [compound 172, N-((4,4-Difluoro-1-(4-(1-methyl-1H-imidazol-4-ylsulfonyl)piperazin-1-yl)cyclohexyl)methyl)-2-fluoro-6-(trifluoromethyl)benzamide Hydrochloride] yielded an IC50 of 3 nM.
COc1cccc(Cl)c1C(=O)NCC1(N2CCN(S(=O)(=O)c3cn(C)cn3)CC2)CCC(F)(F)CC1 [compound 173, 2-Chloro-N-((4,4-Difluoro-1-(4-(1-methyl-1H-imidazol-4-ylsulfonyl)piperazin-1-yl)cyclohexyl)methyl)-6-methoxybenzamide Hydrochloride] was tested, and the IC50 was 2 nM.
Compound Cn1cnc(S(=O)(=O)N2CCN(C3(CNC(=O)c4c(Cl)cccc4Cl)CCC(F)(F)CC3)CC2)c1 [compound 174, 2,6-Dichloro-N-((4,4-difluoro-1-(4-(1-methyl-1H-imidazol-4-ylsulfonyl)piperazin-1-yl)cyclohexyl)methyl) benzamide Hydrochloride] has an IC50 of 5 nM.
With Cn1cnc(S(=O)(=O)N2CCN(C3(CNC(=O)c4ccccc4F)CCC(F)(F)CC3)CC2)c1 [compound 175, N-((4,4-Difluoro-1-(4-(1-methyl-1H-imidazol-4-ylsulfonyl)piperazin-1-yl)cyclohexyl)methyl)-2-fluorobenzamide Hydrochloride] the IC50 was 57 nM.
With COc1ccccc1C(=O)NCC1(N2CCN(S(=O)(=O)c3cn(C)cn3)CC2)CCC(F)(F)CC1 [compound 177, N-((4,4-Difluoro-1-(4-(1-methyl-1H-imidazol-4-ylsulfonyl)piperazin-1-yl)cyclohexyl)methyl)-2-methoxybenzamide Hydrochloride] the IC50 was 34 nM.
Work on Cn1cnc(S(=O)(=O)N2CCN(C3(CNC(=O)c4ccc(Cl)cc4Cl)CCC(F)(F)CC3)CC2)c1 [compound 178, 2,4-Dichloro-N-((4,4-difluoro-1-(4-(1-methyl-1H-imidazol-4-ylsulfonyl)piperazin-1-yl)cyclohexyl)methyl) benzamide Hydrochloride] yielded an IC50 of 5 nM.
Cc1ccccc1C(=O)NCC1(N2CCN(S(=O)(=O)c3cn(C)cn3)CC2)CCC(F)(F)CC1 [compound 179, N-((4,4-difluoro-1-(4-(1-methyl-1H-imidazol-4-ylsulfonyl)piperazin-1-yl)cyclohexyl)methyl)-2-methylbenzamide Hydrochloride] gave an IC50 of 25 nM.
With Cn1cnc(S(=O)(=O)N2CCN(C3(CNC(=O)c4c(F)cccc4Cl)CCC(F)(F)CC3)CC2)c1 [compound 180, 2-Chloro-N-((4,4-difluoro-1-(4-(1-methyl-1H-imidazol-4-ylsulfonyl)piperazin-1-yl)cyclohexyl)methyl)-6-fluorobenzamide Hydrochloride] the IC50 was 8 nM.
Cc1cccc(Cl)c1C(=O)NCC1(N2CCN(S(=O)(=O)c3cn(C)cn3)CC2)CCC(F)(F)CC1 [compound 181, 2-Chloro-N-((4,4-difluoro-1-(4-(1-methyl-1H-imidazol-4-ylsulfonyl)piperazin-1-yl)cyclohexyl)methyl)-6-methylbenzamide Hydrochloride] showed an IC50 of 2 nM.
In the case of Cc1cccc(F)c1C(=O)NCC1(N2CCN(S(=O)(=O)c3cn(C)cn3)CC2)CCC(F)(F)CC1 [compound 182, N-((4,4-Difluoro-1-(4-(1-methyl-1H-imidazol-4-ylsulfonyl)piperazin-1-yl)cyclohexyl)methyl)-2-fluoro-6-methylbenzamide Hydrochloride], the IC50 is reported as 6 nM.
In the case of Cn1cnc(S(=O)(=O)N2CCN(C3(CNC(=O)c4ccccc4OC(F)F)CCC(F)(F)CC3)CC2)c1 [compound 183, N-((4,4-Difluoro-1-(4-(1-methyl-1H-imidazol-4-ylsulfonyl)piperazin-1-yl)cyclohexyl)methyl)-2-(difluoromethoxy) benzamide Hydrochloride], the IC50 is reported as 5 nM.
With Cc1cc(F)ccc1C(=O)NCC1(N2CCN(S(=O)(=O)c3cn(C)cn3)CC2)CCC(F)(F)CC1 [compound 184, N-((4,4-Difluoro-1-(4-(1-methyl-1H-imidazol-4-ylsulfonyl)piperazin-1-yl)cyclohexyl)methyl)-4-fluoro-2-methylbenzamide Hydrochloride] the IC50 was 13 nM.
Compound Cn1cnc(S(=O)(=O)N2CCN(C3(CNC(=O)c4c(F)cccc4OC(F)(F)F)CCC(F)(F)CC3)CC2)c1 [compound 186, N-((4,4-Difluoro-1-(4-(1-methyl-1H-imidazol-4-ylsulfonyl)piperazin-1-yl)cyclohexyl)methyl)-2-fluoro-6-(trifluoromethoxy) benzamide Hydrochloride] has an IC50 of 1 nM.
Cn1cnc(S(=O)(=O)N2CCN(C3(CNC(=O)c4c(Cl)cccc4OC(F)(F)F)CCC(F)(F)CC3)CC2)c1 [compound 187, 2-Chloro-N-((4,4-difluoro-1-(4-(1-methyl-1H-imidazol-4-ylsulfonyl)piperazin-1-yl)cyclohexyl)methyl)-6-(trifluoromethoxy) benzamide Hydrochloride] gave an IC50 of 1 nM.
Compound Cn1cnc(S(=O)(=O)N2CCN(C3(CNC(=O)c4c(F)cccc4OC(F)F)CCC(F)(F)CC3)CC2)c1 [compound 188, N-((4,4-Difluoro-1-(4-(1-methyl-1H-imidazol-4-ylsulfonyl)piperazin-1-yl)cyclohexyl)methyl)-2-(difluoromethoxy)-6-fluorobenzamide Hydrochloride] has an IC50 of 1 nM.
Compound Cn1cc(S(=O)(=O)N2CCN(C3(CNC(=O)c4c(Cl)cccc4Cl)CCC(F)(F)CC3)CC2)nn1 [compound 190, 2,6-Dichloro-N-((4,4-difluoro-1-(4-(1-methyl-1H-l,2,3-triazol-4-ylsulfonyl)piperazin-1-yl)cyclohexyl)methyl) benzamide Hydrochloride] has an IC50 of 1 nM.

— patent publication US9045445B2, “Glycine transporter-1 inhibitors, methods of making them, and uses thereof” (Albany Molecular Research, Inc., priority 2010, dated 2015)
